# Entries after “also recorded” stand apart in the source; their conditions may differ. Bridge positions count the residues as written; N and C are the ends. Square brackets hold non-standard residues; d marks the D form. Peptide text beside a SMILES is read from it. R8 = C=CCCCCCC[C@@](C)(N)C(=O)O; S5 = C=CCCC[C@](C)(N)C(=O)O; Nle = CCCC[C@H](N)C(=O)O
# Columns and labels:
# UBA1 [1] = target: T1, UBA1 (Homo sapiens, UniProt P22314); assay: Fluorescence polarization binding assay; conditions: presence and absence of ubiquitin and ATP
# T1 sequence (P22314 1-1058): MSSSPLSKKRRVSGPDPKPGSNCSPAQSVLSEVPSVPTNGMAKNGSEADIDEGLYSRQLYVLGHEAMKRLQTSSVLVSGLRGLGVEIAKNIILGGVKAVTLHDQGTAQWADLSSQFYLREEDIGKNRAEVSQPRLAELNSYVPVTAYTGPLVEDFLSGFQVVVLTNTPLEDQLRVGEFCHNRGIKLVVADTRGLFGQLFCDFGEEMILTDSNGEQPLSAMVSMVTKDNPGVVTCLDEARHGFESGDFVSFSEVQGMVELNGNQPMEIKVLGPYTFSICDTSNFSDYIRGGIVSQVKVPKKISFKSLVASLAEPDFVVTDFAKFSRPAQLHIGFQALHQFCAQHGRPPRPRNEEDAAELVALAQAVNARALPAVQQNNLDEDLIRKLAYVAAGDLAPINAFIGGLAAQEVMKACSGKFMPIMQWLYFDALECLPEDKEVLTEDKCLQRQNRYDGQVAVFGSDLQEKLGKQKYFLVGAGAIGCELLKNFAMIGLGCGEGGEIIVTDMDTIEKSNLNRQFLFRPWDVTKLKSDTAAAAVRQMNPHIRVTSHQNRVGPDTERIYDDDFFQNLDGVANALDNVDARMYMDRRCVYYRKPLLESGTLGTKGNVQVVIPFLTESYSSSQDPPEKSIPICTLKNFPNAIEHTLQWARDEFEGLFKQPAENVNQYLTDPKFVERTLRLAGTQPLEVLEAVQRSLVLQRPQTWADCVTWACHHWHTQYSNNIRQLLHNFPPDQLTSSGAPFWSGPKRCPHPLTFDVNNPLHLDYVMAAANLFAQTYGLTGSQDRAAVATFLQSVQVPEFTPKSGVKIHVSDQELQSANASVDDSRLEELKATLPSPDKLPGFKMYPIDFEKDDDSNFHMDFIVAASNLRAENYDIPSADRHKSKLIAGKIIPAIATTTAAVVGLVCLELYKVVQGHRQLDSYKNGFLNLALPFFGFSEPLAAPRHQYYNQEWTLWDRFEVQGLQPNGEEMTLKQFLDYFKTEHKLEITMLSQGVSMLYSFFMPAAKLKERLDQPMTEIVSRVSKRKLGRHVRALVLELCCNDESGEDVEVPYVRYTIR
# Description: (§1) In vitro Binding Assays: To assess the binding and affinity of peptidomimetic macrocycles and peptidomimetic precursors to acceptor proteins, a fluorescence polarization assay (FPA) can be used, for example. The FPA technique measures the molecular orientation and mobility using polarized light and fluorescent tracer. When excited with polarized light, fluorescent tracers (e.g., FITC) attached to molecules with high apparent molecular weights (e.g., FITC-labeled peptides bound to a large protein) emit higher levels of polarized fluorescence due to their slower rates of rotation as compared to fluorescent tracers attached to smaller molecules (e.g., FITC-labeled peptides that are free in solution).
# as §1, with “ligands” for “peptidomimetic macrocycles and peptidomimetic precursors”
# UBA1 [2] = target: T1, UBA1; assay: Hydrogen-deuterium exchange mass spectrometry with E1; assay type: binding; conditions: 10 s labeling
# Procedure: HXMS analysis: Hydrogen-deuterium exchange mass spectrometry (HXMS) experiments were performed as described (Barclay, L. A. et al. Inhibition of Pro-apoptotic BAX by a noncanonical interaction mechanism. Molecular Cell 57, 873-886, doi: 10.1016/j.molcel.2015.01.014 (2015)). SAH-UBE2A was incubated alone or with the indicated molar ratio of recombinant human UBA1, UBE2D2, or vehicle control for ten minutes on ice, in buffer containing 50 mM NaCl, 5 mM MgCl2, 500 nM ubiquitin, 20 mM ATP, 5 mM DTT, 20 mM HEPES, pH 7.4. Deuterium labeling was initiated with an 18-fold dilution into D20 buffer (20 mM HEPES, 50 mM NaCl, pD 8). After 10 s of labeling, the labeling reaction was quenched with the addition of an equal volume of quenching buffer (0.8 M guanidinium chloride, 0.8% [v/v] formic acid). Samples were then injected and peptides were trapped intact and desalted on a VanGuard Pre-Column trap (2.1 mm×5 mm, ACQUITY UPLC BEH C18, 1.7 μm) for 3 min, eluted from the trap using a 5%-35% gradient of acetonitrile over 6 minutes at a flow rate of 65 μL/min, and then separated using an ACQUITY UPLC HSS T3, 1.8 μm, 1.0 mm×50 mm column on a Waters nanoACQUITY LC. The Waters Synapt G2Si mass spectrometer was operated in ion mobility mode and data analyzed. All mass spectra were processed using DynamX 3.0 (Waters Corporation). […]
# [3] = test system: HeLa S100 lysate fraction, polyubiquitin chains; assay: Cellular lysate enzyme inhibition (ubiquitination) assay; assay type: biochemical; conditions: excess ubiquitin, ATP regeneration solution, vs vehicle
# Procedure: Cellular Lysate Enzyme Inhibition Assays: Cellular lysate assays were performed with 1 mg/mL final concentration HeLa S100 lysate fraction and the indicated concentration of peptide or DMSO vehicle control in an assay buffer containing 1×ATP regeneration solution, 20 mM HEPES, 50 mM NaCl, 5 mM MgCl2, 2 mM DTT, 100 nM ubiquitin aldehyde, and a protease-phosphatase inhibitor cocktail at pH 7.4. Reactions were initiated by addition of ubiquitin to a final concentration of 100 μM and allowed to proceed for 30 minutes at room temperature, followed by quenching with non-reducing LDS loading buffer. Proteins were separated by SDS-PAGE gel electrophoresis and detected by western blot against polyubiquitin (Cell Signaling Technology CST3936).
compound,measurement,setting,value
"CCCC[C@H](NC(C)=O)C(=O)N[C@@H](CO)C(=O)N[C@H](C(=O)N1CCC[C@H]1C(=O)N[C@]1(C)CCCCCCC=CCCC[C@@](C)(C(=O)N[C@@H](Cc2ccccc2)C(=O)N[C@@H](CCCCN)C(=O)N[C@@H](CCCNC(=N)N)C(=O)N[C@@H](CC(C)C)C(=O)N[C@@H](CCC(N)=O)C(N)=O)NC(=O)[C@H](CCCNC(=N)N)NC(=O)[C@H](CCCC)NC(=O)[C@H](CC(C)C)NC(=O)[C@H](CCCNC(=N)N)NC(=O)[C@H](CCCNC(=N)N)NC(=O)[C@H](CCCNC(=N)N)NC1=O)[C@@H](C)O [SAH-UBE2A-11, BSTPX1RRRLBRX2FKRLQ] (Ac-[Nle]STP[R8]RRRL[Nle]R[S5]FKRLQ-NH2; staple 5-12)","direct binding to recombinant UBA1, fluorescence polarization",UBA1 [1],binds to UBA1 independent of ubiquitin and ATP; also recorded: direct binding of SAH-UBE2A to recombinant UBA1
same,protection of peptide from deuterium uptake by UBA1,UBA1 [2],dose-dependently protected SAH-UBE2A from deuterium uptake; also recorded: dose-responsively binding to E1
same,formation of polyubiquitin chains in HeLa cell cytoplasmic fraction,[3],dose-dependently inhibited formation of polyubiquitin chains
